# Measured values from patent US12644886B2, “Biosensor microarray compositions and methods” (Arizona Board of Regents on Behalf of Arizona State …, priority 2013, dated 2026).
# Target: Src kinase (Homo sapiens, UniProt P12931)
# Assay: FET biosensor detection of Src kinase auto-phosphorylation (phosphokinase activity)
# Format: biochemical
# Description: FIG. 6 FET Biosensor detection of phosphokinase activity.
# In some embodiments the biosensor microarray is used to quantify kinetic rates of interaction between one or more analytes in a test sample and the corresponding detector polypeptides. In other embodiments, the biosensor microarray is used to assess inhibition of a protein activity or a protein-protein interaction. For example, where the detector polypeptide is a protein kinase substrate or a kinase with autophosphorylation activity, phosphokinase activity can be detected in the presence or absence of a known or putative inhibitor of the specific phosphokinase activity (see, e.g. FIGS. 6-7). […] Further, where increased kinase phosphorylation is associated with a particular disease state, the kinase activity of particular biological samples can be assessed by contacting a biosensor microarray described herein with the relevant biological sample and detecting phosphorylation of one or more detector polypeptides. Protein kinases are important targets in a number of health condition, e.g., cancer, pulmonary hypertension, diabetes, Alzheimer's, Parkinson's, CNS diseases, macular degeneration, Idiopathic pulmonary fibrosis, systemic sclerosis, rheumatoid disorders, among other diseases, allowing discovery of kinase inhibitor drugs and applying kinase functional screening as disease diagnostics
# Sequence of Src kinase (P12931 whole entry): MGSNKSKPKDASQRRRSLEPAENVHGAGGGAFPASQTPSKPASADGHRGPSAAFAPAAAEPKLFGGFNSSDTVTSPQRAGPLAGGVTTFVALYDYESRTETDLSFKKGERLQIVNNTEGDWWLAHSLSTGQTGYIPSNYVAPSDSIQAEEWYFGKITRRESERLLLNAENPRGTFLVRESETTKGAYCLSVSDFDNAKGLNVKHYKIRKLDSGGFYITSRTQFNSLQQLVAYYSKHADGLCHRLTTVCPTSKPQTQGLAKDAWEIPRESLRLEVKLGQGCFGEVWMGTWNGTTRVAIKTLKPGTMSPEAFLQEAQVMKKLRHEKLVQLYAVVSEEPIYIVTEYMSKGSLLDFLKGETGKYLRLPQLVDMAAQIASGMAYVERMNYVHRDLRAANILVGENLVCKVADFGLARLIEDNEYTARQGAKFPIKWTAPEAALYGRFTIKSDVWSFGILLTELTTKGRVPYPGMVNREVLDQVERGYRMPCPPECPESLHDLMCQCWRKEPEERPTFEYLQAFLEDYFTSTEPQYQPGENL
smiles,measurement,setting,value
Nc1ncnc2c1ncn2[C@@H]1O[C@H](COP(=O)(O)OP(=O)(O)O)[C@@H](O)[C@H]1O [ADP],FDEC FET sensor response to Src kinase auto-phosphorylation upon addition,addition of ADP instead of ATP,no response
Nc1ncnc2c1ncn2[C@@H]1O[C@H](COP(=O)(O)OP(=O)(O)OP(=O)(O)O)[C@@H](O)[C@H]1O [ATP],threshold voltage response (FDEC FET response to Src kinase auto-phosphorylation by detecting H+),upon addition of 10 mM ATP,200 mV
CN[C@@H]1C[C@H]2O[C@@](C)([C@@H]1OC)n1c3ccccc3c3c4c(c5c6ccccc6n2c5c31)C(=O)NC4 [Staurosporine],Src kinase inhibition (real time detection of Src kinase autophosphorylation),"2 μM staurosporine, FET-based biosensor microarray",inhibition
